According to patent publication US4180655A, “Nitrosourea derivatives” (Suami; Tetsuo, priority 1974, dated 1979):

Tests used:
Leukemia L1210 cells = experiment: Chemotherapeutic effect of nitrosourea derivatives on leukemia L1210 in mice; assay type: in vivo, mice (BDF1/BDF)
Description: Chemotherapeutic effect of a variety of the nitrosourea derivatives of the formula I according to this invention on leukemia L1210 in mice were investigated by the following method and materials.
A--BDF1 mice (about 6 week-aged; body weight: 22±1 g); each experimental group was composed of 2 male mice.
B--BDF1 mice (about 7 week-aged; body weight: 21±2 g); each experimental group was composed of 3 male mice.
C--BDF mice (about 7 week-aged; body weight: 22±2 g); each experimental group was composed of 2 male mice.
D--BDF mice (about 6 week-aged; body weight: 21±2 g); each experimental group was composed of 3 male mice.
E--BDF1 mice (about six week-aged; body weight 20±1 g); each experimental group was composed of 3 female mice.
F--BDF1 mice (about six week-aged; body weight 21±1 g); each experimental group was composed of 3 male mice.
A--Leukemia L1210 cells (2.1×10^6 cells/ 0.05 ml/mouse) were intraperitoneally inoculated.
B--Leukemia L1210 cells (1.9×10^6 cells/0.05 ml/mouse) were intraperitoneally inoculated.
C--Leukemia L1210 cells (1.2×10^6 cells/0.05 ml/mouse) were intraperitoneally inoculated.
A--The test compound was dissolved in a physiological saline solution and administered intraperitoneally at a volume of 0.1 ml/mouse. The administration was made at once/day, from 24 hours after i.p. inoculation of L1210 cells, for 3 days. The effect of test compound was assessed by mean survival days of mice, percent increase in life-span, anatomical findings involving the volume of ascites.
B--The same as that used in A except that the drug administration was continued for 5 days.
C--The same as that used in A except that the test compound was suspended in 0.5% CMC solution and that the drug administration was continued for 5 days.
D--The same as that used in A except that the test compound was dissolved in distilled water for injection purposes.
The percentage increase in life-span (ILS) was calculated as follows:
Percentage increase in life-span (ILS)=T-C/C×100
T: The mean survival days of the treated animals.
C: The mean survival days of the untreated control.

[1] = LD50 value / toxicity in the intraperitoneal administration to BDF1 mice; settings: mouse, in vivo, ip
Description: The new nitrosourea derivatives according to this invention are further characterized by their low toxicity, thus satisfying their practical application for treating leukemia and tumor diseases.

[2] = 0.2 mg/kg i.p. once/day for 3 days (procedure A, saline)
[3] = 0.5 mg/kg i.p. once/day for 3 days (procedure A, saline)
[4] = 1 mg/kg i.p. once/day for 3 days (procedure A, saline)
[5] = 2 mg/kg i.p. once/day for 3 days (procedure A, saline)
[6] = 4 mg/kg i.p. once/day for 3 days (procedure A, saline)
[7] = 5 mg/kg i.p. once/day for 3 days (procedure A, saline)
[8] = 6.25 mg/kg i.p. once/day for 3 days (procedure A, saline)
[9] = 8 mg/kg i.p. once/day for 3 days (procedure A, saline)
[10] = 10 mg/kg i.p. once/day for 3 days (procedure A, saline)
[11] = Mus musculus, L1210, ip, 72 h, 0.5 mg/kg i.p. once/day for 3 days (procedure A, saline), read-out: Percentage increase in life-span (ILS)
[12] = Mus musculus, L1210, ip, 72 h, 1 mg/kg i.p. once/day for 3 days (procedure A, saline), read-out: Percentage increase in life-span (ILS)
[13] = Mus musculus, L1210, ip, 72 h, 2 mg/kg i.p. once/day for 3 days (procedure A, saline), read-out: Percentage increase in life-span (ILS)
[14] = Mus musculus, L1210, ip, 72 h, 4 mg/kg i.p. once/day for 3 days (procedure A, saline), read-out: Percentage increase in life-span (ILS)
[15] = Mus musculus, L1210, ip, 72 h, 8 mg/kg i.p. once/day for 3 days (procedure A, saline), read-out: Percentage increase in life-span (ILS)
[16] = Mus musculus, L1210, ip, 72 h, 10 mg/kg i.p. once/day for 3 days (procedure A, saline), read-out: Percentage increase in life-span (ILS)
[17] = 200 mg/kg i.p. once/day for 5 days (procedure B, saline)
[18] = 300 mg/kg i.p. once/day for 5 days (procedure B, saline)
[19] = Mus musculus, L1210, ip, 120 h, read-out: Percentage increase in life-span (ILS)

Structure (SMILES)	Survival days, Treated (mean) (Leukemia L1210 cells; [3]) [days]	Volume of ascites, Treated (Leukemia L1210 cells; [3])	Survival days, Treated (mean) (Leukemia L1210 cells; [4]) [days]	Volume of ascites, Treated (Leukemia L1210 cells; [4])	Survival days, Treated (mean) (Leukemia L1210 cells; [5]) [days]	Volume of ascites, Treated (Leukemia L1210 cells; [5])	Survival days, Treated (mean) (Leukemia L1210 cells; [6]) [days]	Volume of ascites, Treated (Leukemia L1210 cells; [6])	Survival days, Treated (mean) (Leukemia L1210 cells; [9]) [days]	Volume of ascites, Treated (Leukemia L1210 cells; [9])	Survival days, Treated (mean) (Leukemia L1210 cells; [10]) [days]	Volume of ascites, Treated (Leukemia L1210 cells; [10])	ILS at 0.5 mg/kg (Leukemia L1210 cells; [11]) [%]	ILS at 1 mg/kg (Leukemia L1210 cells; [12]) [%]	ILS at 2 mg/kg (Leukemia L1210 cells; [13]) [%]	ILS at 4 mg/kg (Leukemia L1210 cells; [14]) [%]	ILS at 8 mg/kg (Leukemia L1210 cells; [15]) [%]	ILS at 10 mg/kg (Leukemia L1210 cells; [16]) [%]	also measured
O=NN(CCCl)C(=O)N[C@@H]1O[C@H](CO)[C@@H](O)[C@H](O)[C@H]1O [Compound 1, 1-(2-chloroethyl)-3-(β-D-glucopyranosyl)-1-nitrosourea]	12.5	4.2	12.9	5.0	15.3	2.5	40.3	0	95.9	0	95.9	0	34.4	38.7	64.5	333	931	931	Survival days, Treated (mean) (Leukemia L1210 cells; [2]): 12.0 days; Volume of ascites, Treated (Leukemia L1210 cells; [2]): 4.2; Survival days, Treated (mean) (Leukemia L1210 cells; [7]): 15.3 days; Volume of ascites, Treated (Leukemia L1210 cells; [7]): 1.5; Survival days, Treated (mean) (Leukemia L1210 cells; [8]): > 40.1 days; Volume of ascites, Treated (Leukemia L1210 cells; [8]): 0; ILS at 0.2 mg/kg (Leukemia L1210 cells; Mus musculus, L1210, ip, 72 h, 0.2 mg/kg i.p. once/day for 3 days (procedure A, saline), read-out: Percentage increase in life-span (ILS)): 29%; ILS at 5 mg/kg (Leukemia L1210 cells; Mus musculus, L1210, ip, 72 h, 5 mg/kg i.p. once/day for 3 days (procedure A, saline), read-out: Percentage increase in life-span (ILS)): 64.5%; ILS at 6.25 mg/kg (Leukemia L1210 cells; Mus musculus, L1210, ip, 72 h, 6.25 mg/kg i.p. once/day for 3 days (procedure A, saline), read-out: Percentage increase in life-span (ILS)): > 331%; LD50 [1]: ~25 mg/kg
CO[C@@H]1O[C@H](C)[C@@H](O)[C@H](O)[C@H]1NC(=O)N(C)N=O [Compound 6, Methyl 2,6-dideoxy-2-(N'-methyl-N-nitrosoureido)-βD-glucopyranoside]																			Survival days, Treated (mean) (Leukemia L1210 cells; [17]): 15.1 days; Volume of ascites, Treated (Leukemia L1210 cells; [17]): 2.0; Survival days, Treated (mean) (Leukemia L1210 cells; [18]): 13.0 days; Volume of ascites, Treated (Leukemia L1210 cells; [18]): 0.3; ILS at 200 mg/kg (Leukemia L1210 cells; [19]): 77.6%; ILS at 300 mg/kg (Leukemia L1210 cells; [19]): 52.9%
O=NN(CCCl)C(=O)N[C@@H]1O[C@H](CO)[C@@H](O)[C@H](O)[C@@H]1O [Compound 2, 1-(2-chloroethyl)-3-(β-D-mannopyranosyl)-1-nitrosourea]	13.0	3.0	13.7	2.3	14.7	1.2	15.0	1.2	18.3	0			44.4	51.9	63	66.7	103		
O=NN(CCCl)C(=O)N[C@@H]1O[C@H](CO)[C@H](O)[C@H](O)[C@H]1O [Compound 7, 1-(2-chloroethyl)-3-(β-D-galactopyranosyl)-1-nitrosourea]			18.5	4.6	14.7	0.8	> 47.0	0	> 47.0	0	18.7	0		98.9	58.1	> 405	> 405	101	
